Tested on: skin microbiome
Test: Conversion of crocin to crocetin by the skin microbiome (in vitro)
Format: in vitro ADME
Protocol: Sampling of skin microbiome was performed on 7 volunteers with a sterile gauze impregnated with NaCl in 5 areas: forehead, cheek, nose, neck, forearm. All samples were combined to obtain a representative skin microbiota composition. The thus obtained microbiome was cultured in liquid medium (buffered HT medium) at 30° C. in the presence of crocin. Supernatants were collected regularly and analyzed by HPLC-MS to detect crocin and crocetin.

| time for complete transformation to crocetin (human) [h] | concentration, % of maximum concentration detected (human, 0 h) [%] | concentration, % of maximum concentration detected (human, 18 h) [%] | concentration, % of maximum concentration detected (human, 42 h) [%] | concentration, % of maximum concentration detected (human, 66 h) [%] | concentration, % of maximum concentration detected (human, 90 h) [%] | concentration, % of maximum concentration detected (skin microbiome culture with crocin, 42 h) [%] | concentration, % of maximum concentration detected (skin microbiome culture with crocin, 66 h) [%] | concentration, % of maximum concentration detected (skin microbiome culture with crocin, 90 h) [%] | concentration, % of maximum concentration detected (skin microbiome culture with crocin, 162 h) [%] | concentration, % of maximum concentration detected (skin microbiome culture with crocin, 186 h) [%] | concentration, % of maximum concentration detected (skin microbiome culture with crocin, 210 h) [%] | SMILES |
| --- | --- | --- | --- | --- | --- | --- | --- | --- | --- | --- | --- | --- |
| ≤ 210 | 100 | 100 | 47.5 | 2.9 | 0.1 |  |  |  |  |  |  | CC(/C=C/C=C(\C)C(=O)O[C@@H]1O[C@H](CO[C@@H]2O[C@H](CO)[C@@H](O)[C@H](O)[C@H]2O)[C@@H](O)[C@H](O)[C@H]1O)=C\C=C\C=C(C)\C=C\C=C(/C)C(=O)O[C@@H]1O[C@H](CO[C@@H]2O[C@H](CO)[C@@H](O)[C@H](O)[C@H]2O)[C@@H](O)[C@H](O)[C@H]1O [Crocin] |
|  |  |  |  |  |  | 0.7 | 7.9 | 30.5 | 65.3 | 101.3 | 101.3 | CC(/C=C/C=C(\C)C(=O)O)=C\C=C\C=C(C)\C=C\C=C(/C)C(=O)O [Crocetin] |

Source: US20230101236A1, “COSMETIC COMPOSITION” (GIVAUDAN SA, priority 2020, published 2023)
